Test results as given in patent US20230416316A1, “ADP-RIBOSE BINDING PEPTIDES WITH ANTI-CANCER ACTIVITY AND USE THEREOF” (PearlsInMires Co., Ltd., priority 2021, published 2023).

What was measured:
Format in all cases: cell-based
[1] = test system: Aspc-1 cells; experiment: Cell viability (MTT, photomicrographs) in Aspc-1 cells; conditions: 16 μM peptide, 24 hours
Procedure: (§1) After culturing 3×10^3 Aspc-1 cells in a 96-well plate for 24 hours under conditions of 37° C. and 5% CO2, the cells were either untreated or treated with the peptides of Examples 1 to 28 at a concentration of 16 μM, respectively. Then, the cells were cultured for 24 hours under conditions of 37° C. and 5% CO2, and 10 μl of 3-(4,5-dimethylthiazol-2-yl)-2,5-diphenyltetrazolium bromide reagent was added to each well, followed by reaction for 1 hour. After the reaction was completed, the reagent was removed, 200 μl of dimethyl sulfoxide was added to each well, and the absorbance was measured to confirm cell viability.

[2] = test system: Aspc-1 cells; experiment: ADP-ribose level by ELISA in Aspc-1 cells; conditions: 0.2-32 μM peptide, 24 hours
Procedure: (§2) The peptides of Examples 1 to 28 of the present disclosure are designed to inhibit the action of poly ADP-ribose degradation enzyme. In Experimental Example 1, it was confirmed through cell experiments whether poly ADP-ribose was inhibited from being degraded by each of the peptides and accumulated in cancer cells.
(§3) 5×10^5 Aspc-1 cells were divided into a group not treated with the peptide of Example and a group treated with 0.2, 1, 2, 4, 8, 16, and 32 μM of the peptide of Example 3 (SEQ ID NO: 3), and cultured for 24 hours under conditions of 37° C. and 5% CO2 in RPMI-1640 medium supplemented with 10% FBS, 100 units/ml penicillin, and 100 μg/ml streptomycin. The medium of the cultured cells was removed, and the samples were treated with RIPA buffer and 1% SDS. The prepared supernatant was used for ELISA analysis to detect and analyze ADP-ribose.

[3] = test system: H1975 cells; experiment: ADP-ribose level by ELISA in H1975 cells; conditions: 0.2-32 μM peptide, 24 hours
Procedure: as §2
as §3, with “5×10^5 H1975” for “5×10^5 Aspc-1”, “Example 2” for “Example 3”, “NO: 2),” for “NO: 3),”

[4] = test system: H1975 cells; experiment: Cell viability (MTT, photomicrographs) in H1975 cells; conditions: 16 μM peptide, 24 hours
Procedure: as §1, with “H1975” for “Aspc-1”

[5] = test system: MDA-MB-231 cells; experiment: Cell viability (MTT, photomicrographs) in MDA-MB-231 cells; conditions: 16 μM peptide, 24 hours
Procedure: as §1, with “culturing 3×10^3 MDA-MB-231 cells in” for “culturing 3×10^3 Aspc-1 cells in”, “and 5% C02, the cells” for “and 5% CO2, the cells”

[6] = test system: Hep G2 cells; experiment: Cell viability (MTT, photomicrographs) in Hep G2 cells; conditions: 16 μM peptide, 24 hours
Procedure: 2-4. Change in viability in Hep G2 cells according to treatment with ADP-ribose binding peptide After culturing 3×10^3 Hep G2 cells in a 96-well plate for 24 hours under conditions of 37° C. and 5% CO2, the cells were either untreated or treated with the peptides of Examples 1 to 28 at a concentration of 16 μM, respectively. Then, the cells were cultured for 24 hours under conditions of 37° C. and 5% CO2, and 10 μl of 3-(4,5-dimethylthiazol-2-yl)-2,5-diphenyltetrazolium bromide reagent was added to each well, followed by reaction for 1 hour. After the reaction was completed, the reagent was removed, 200 μl of dimethyl sulfoxide was added to each well, and the absorbance was measured to confirm cell viability.

[7] = test system: Caki-1 cells; experiment: Cell viability (MTT, photomicrographs) in Caki-1 cells; conditions: 16 μM peptide, 24 hours
Procedure: as §1, with “Caki-1” for “Aspc-1”

[8] = test system: HCT116 cells; experiment: Cell viability (MTT, photomicrographs) in HCT116 cells; conditions: 16 μM peptide, 24 hours
Procedure: as §1, with “HCT116” for “Aspc-1”

[9] = test system: U-87MG cells; experiment: Cell viability (MTT, photomicrographs) in U-87MG cells; conditions: 16 μM peptide, 24 hours
Procedure: as §1, with “U-87MG” for “Aspc-1”

[10] = test system: U-87MG cells; experiment: ADP-ribose level by ELISA in U-87MG cells; conditions: 0.2-32 μM peptide, 24 hours
Procedure: as §2
5×10^5 U-87MG cells were divided into a group not treated with the peptide of Example and a group treated with 0.2, 1, 2, 4, 8, 16, and 32 μM of the peptide of Example 1 (SEQ ID NO: 1) or Example 8 (SEQ ID NO: 8), and cultured for 24 hours under conditions of 37° C. and 5% CO2 in Eagle's minimum essential medium (EMEM) supplemented with 10% FBS, 100 units/ml penicillin, and 100 μg/ml streptomycin. The medium of the cultured cells was removed, and the samples were treated with RIPA buffer and 1% SDS. The prepared supernatant was used for ELISA analysis to detect and analyze ADP-ribose.

Sequence: APYIIDLPSWTQFRQDIGTMRAVRR (APYIIDLPSWTQFRQDTGTMRAVRR; ADP-ribose binding peptide) [Example 3]
- cancer cell growth and survival [1]: inhibited from growing and killed
- amount of increase in ADP-ribose (fold change) compared to the control group [2]: significant increase in the amount of ADP-ribose in a concentration-dependent manner

Sequence: APYIIDLQSMNQFRQDIGTLRPVRR (APYIIDLQSMNQFRQDTGTLRPVRR; ADP-ribose binding peptide) [Example 2]
- amount of increase in ADP-ribose (fold change) compared to the control group [3]: significant increase in the amount of ADP-ribose in a concentration-dependent manner
- cancer cell growth and survival [4]: inhibited from growing and killed

Sequence: GRKKRRQRRRPQAPYIIDLPSWTQFRQDIGTMRAVRR (GRKKRRQRRRPQAPYIIDLPSWTQFRQDTGTMRAVRR; ADP-ribose binding peptide with CPP) [Example 17]
- cancer cell growth and survival [1]: completely killed

Sequence: GRKKRRQRRRPQAPYIIDLQSMNQFRQDTGTLRPVRR (ADP-ribose binding peptide with CPP) [Example 16]
- cancer cell growth and survival [4]: completely killed

Sequence: GRKKRRQRRRPQFCYLIYENSMSQMNRQTRRRRRLRR (GRKKRRQRRRPQFCYLIYFNSMSQMNRQTRRRRRLRR; ADP-ribose binding peptide with CPP) [Example 19]
- cancer cell growth and survival [5]: completely killed

Sequence: GRKKRRQRRRPQFLYVADLENMVQYRRNEHGRRRKIKR (ADP-ribose binding peptide with CPP) [Example 25]
- cancer cell growth and survival [6]: completely killed

Sequence: GRKKRRQRRRPQFSYKIDFAEMKQMNLTTGKQRLIKR (ADP-ribose binding peptide with CPP) [Example 21]
- cancer cell growth and survival [7]: completely killed

Sequence: GRKKRRQRRRPQFSYVIDENTMGQINRQTQRQRRVRR (GRKKRRQRRRPQFSYVIDFNTMGQINRQTQRQRRVRR; ADP-ribose binding peptide with CPP) [Example 20]
- cancer cell growth and survival [8]: completely killed

Sequence: GRKKRRQRRRPQGRYDVHLGERMRYAVYWDELASEVRR (ADP-ribose binding peptide with CPP) [Example 27]
- cancer cell growth and survival [8]: completely killed

Sequence: GRKKRRQRRRPQRHYTVNLNTYTATDTKGHSLSVQR (ADP-ribose binding peptide with CPP) [Example 26]
- cancer cell growth and survival [5]: completely killed

Sequence: GRKKRRQRRRPQRRYTVQFTTMVQVNEETGNRRPVM (ADP-ribose binding peptide with CPP) [Example 23]
- cancer cell growth and survival [4]: completely killed

Sequence: GRKKRRQRRRPQRVYTIDENSMQQINEDTGTARAIQR (GRKKRRQRRRPQRVYTIDFNSMQQINEDTGTARAIQR; ADP-ribose binding peptide with CPP) [Example 18]
- cancer cell growth and survival [6]: completely killed

Sequence: GRKKRRQRRRPQTAYEASVCDYLEQQVARGN (ADP-ribose binding peptide with CPP) [Example 28]
- cancer cell growth and survival [7]: completely killed

Sequence: GRKKRRQRRRPQVPYIIDLQSMHQFRQDIGTMRPVRR (GRKKRRQRRRPQVPYIIDLQSMHQFRQDTGTMRPVRR; ADP-ribose binding peptide with CPP) [Example 15]
- cancer cell growth and survival [9]: completely killed

Sequence: GRKKRRQRRRPQWIWYWKNESGTWIQYGEEKDKRKN (ADP-ribose binding peptide with CPP) [Example 24]
- cancer cell growth and survival [1]: completely killed

Sequence: GRKKRRQRRRPQYNYTVNYTTHTQTNKTSSFCRSVRR (ADP-ribose binding peptide with CPP) [Example 22]
- cancer cell growth and survival [9]: completely killed

Sequence: RRYTVQFTTMVQVNEETGNRRPVM (ADP-ribose binding peptide) [Example 9]
- amount of increase in ADP-ribose (fold change) compared to the control group [3]: significant increase in the amount of ADP-ribose in a concentration-dependent manner
- cancer cell growth and survival [4]: inhibited from growing and killed

Sequence: VPYIIDLQSMHQFRQDIGTMRPVRR (VPYIIDLQSMHQFRQDTGTMRPVRR; ADP-ribose binding peptide) [Example 1]
- cancer cell growth and survival [9]: inhibited from growing and killed
- amount of increase in ADP-ribose (fold change) compared to the control group [10]: significant increase in the amount of ADP-ribose in a concentration-dependent manner

Sequence: WIWYWKNESGTWIQYGEEKDKRKN (ADP-ribose binding peptide) [Example 10]
- cancer cell growth and survival [1]: inhibited from growing and killed
- amount of increase in ADP-ribose (fold change) compared to the control group [2]: significant increase in the amount of ADP-ribose in a concentration-dependent manner

Sequence: YNYTVNYTTHTQTNKTSSFCRSVRR (ADP-ribose binding peptide) [Example 8]
- cancer cell growth and survival [9]: inhibited from growing and killed
- amount of increase in ADP-ribose (fold change) compared to the control group [10]: significant increase in the amount of ADP-ribose in a concentration-dependent manner
